A word on the IC50: it is the concentration needed to halve the response being measured.

Where only a bound is given, the exact number is not on record here.

This passage reports IC50 results from patent US20060252807A1, “Novel ortho-terphenyl inhibitors of p38 kinase and methods of treating inflammatory disorders” (Kalypsys, Inc., priority 2005, published 2006).

T1 sequence (Q16539 whole entry): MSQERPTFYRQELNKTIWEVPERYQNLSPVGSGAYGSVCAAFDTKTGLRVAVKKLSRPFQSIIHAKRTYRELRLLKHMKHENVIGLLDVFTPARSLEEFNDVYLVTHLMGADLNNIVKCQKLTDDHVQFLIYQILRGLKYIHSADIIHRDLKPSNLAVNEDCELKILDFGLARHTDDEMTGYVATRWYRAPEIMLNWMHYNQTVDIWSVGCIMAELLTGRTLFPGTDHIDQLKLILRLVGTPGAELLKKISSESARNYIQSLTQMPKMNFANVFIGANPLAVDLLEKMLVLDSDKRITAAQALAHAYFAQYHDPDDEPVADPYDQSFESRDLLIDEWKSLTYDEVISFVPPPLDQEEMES

The assay addresses T1, active p38 alpha enzyme (Upstate Biotechnology) (Homo sapiens, UniProt Q16539).
T1 construct: purchased Upstate Biotechnology
Briefly: p38α biochemical assay (ATP turnover, luminescent detection, Cambrex PKlight). Particulars: p38α kinase; Table 1 Biological Activity. In short, it runs like this: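 Active p38α phosphorylates MapkapK2 whole protein with 1.4 uM final ATP, 2 h at 30C, in Tris/MOPS buffer with MgCl2, CaCl2, EGTA, EDTA, glycerol, β-mercaptoethanol and 1 mg/ml BSA. Compounds pin-delivered from DMSO; total ATP turnover read by luminescence after PKlight addition.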
Compound `O=C(NC1CCN(Cc2ccccc2)C1)c1csc(-c2c(-c3ccc(F)cc3)n[nH]c2C2CCNC2)n1` (stereo not drawn) [Example 2147] had an IC50 of over 1000 nM. Then `COc1ccc(OC)c(CCNC(=O)c2csc(-c3c(-c4ccc(F)cc4)n[nH]c3C3CCNCC3)n2)c1` [Example 2148], with over 1000 nM; and `CN(C)c1ccc(CNC(=O)c2csc(-c3c(-c4ccc(F)cc4)n[nH]c3C3CCNCC3)n2)cc1` [Example 2149], with over 1000 nM; and `COc1ccc(CNC(=O)c2csc(-c3c(-c4ccc(F)cc4)n[nH]c3C3CCNCC3)n2)cc1O` [Example 2150], with at most 1000 nM. For `O=C(NC1CCN(Cc2ccccc2)CC1)c1csc(-c2c(-c3ccc(F)cc3)n[nH]c2C2CCNCC2)n1` [Example 2151] the value was over 1000 nM; for `O=C(NCc1ccccc1OC(F)(F)F)c1csc(-c2c(-c3ccc(F)cc3)n[nH]c2C2CCNCC2)n1` [Example 2152], over 1000 nM; for `NS(=O)(=O)c1ccc(CCNC(=O)c2csc(-c3c(-c4ccc(F)cc4)n[nH]c3C3CCNCC3)n2)cc1` [Example 2153], over 1000 nM.

For the compound `COc1ccc(C(=O)CNC(=O)c2csc(-c3c(-c4ccc(F)cc4)n[nH]c3C3CCNCC3)n2)cc1` [Example 2154], the IC50 is over 1000 nM. For `O=C(NCCc1ccc2c(c1)OCO2)c1csc(-c2c(-c3ccc(F)cc3)n[nH]c2C2CCNCC2)n1` [Example 2155] the value was over 1000 nM; for `O=C(NCCC(c1ccccc1)c1ccccc1)c1csc(-c2c(-c3ccc(F)cc3)n[nH]c2C2CCNCC2)n1` [Example 2156], over 1000 nM; for `Cc1ccc(S(=O)(=O)NCCNC(=O)c2csc(-c3c(-c4ccc(F)cc4)n[nH]c3C3CCNCC3)n2)cc1` [Example 2157], over 1000 nM. Then `Cc1nc(-c2ccc(F)cc2)c(-c2nc(C(=O)NC(C)C)cs2)[nH]1` [Example 2158, 2-|5-(4-Fluoro-phenyl)-2-methyl-3H-imidazol-4-yl|-thiazole-4-carboxylic acid isopropylamide], with at most 1000 nM. For `Cc1nc(-c2ccc(F)cc2)c(-c2nc(C(N)=O)cs2)o1` [Example 2159, 2-|4-(4-Fluoro-phenyl)-2-methyl-oxazol-5-yl|-thiazole-4-carboxylic acid amide] the value was over 1000 nM; for `CC(C)NC(=O)c1coc(-c2c(-c3ccc(F)cc3)noc2C2CCNCC2)n1` [Example 2160, 2-|3-(4-Fluoro-phenyl)-5-piperidin-4-yl-isoxazol-4-yl|-oxazole-4-carboxylic acid isopropylamide], at most 1000 nM.

With `COCCOCn1nc(-c2ccc(F)cc2)c(-c2nc(C=O)cs2)c1C` [Example 2161, 2-|3-(4-Fluoro-phenyl)-1-(2-methoxy-ethoxymethyl)-5-methyl-1H-pyrazol-4-yl|-thiazole-4-carbaldehyde], the IC50 is over 1000 nM. For `CC(C)NC(=O)c1csc(-c2c(-c3ccc(Cl)cc3)ncn2C2CCNCC2)n1` [Example 2162, 2-|5-(4-Chloro-phenyl)-3-piperidin-4-yl-3H-imidazol-4-yl|-thiazole-4-carboxylic acid isopropylamide] the value was over 1000 nM; for `CC(=O)N1CCC(n2cnc(-c3ccc(Cl)cc3)c2-c2nc(C(=O)NC(C)C)cs2)CC1` [Example 2163], at most 1000 nM; for `CC(C)NC(=O)c1csc(-c2c(-c3ccc(F)cc3)n[nH]c2C2CCN(C(=O)[C@H](C)O)CC2)n1` [Example 2165, 2-{3-(4-Fluoro-phenyl)-5-|1-(2-hydroxy-propionyl)-piperidin-4-yl|-1H-pyrazol-4-yl}-thiazole-4-carboxylic acid isopropylamide], at most 1000 nM. For `CC(C)NC(=O)c1csc(-c2c(-c3ccc(F)cc3)n[nH]c2C2CCN(C(=O)C(C)(C)O)CC2)n1` [Example 2166, 2-{3-(4-Fluoro-phenyl)-5-|1-(2-hydroxy-2-methyl-propionyl)-piperidin-4-yl|-1H-pyrazol-4-yl}-thiazole-4-carboxylic acid isopropylamide] the value was at most 1000 nM; for `CC(=O)N1CCC(c2[nH]nc(-c3ccc(F)cc3)c2-c2nc(C(=O)NC(C)C)cs2)CC1` [Example 2167, 2-|5-(1-Acetyl-piperidin-4-yl)-3-(4-fluoro-phenyl)-1H-pyrazol-4-yl|-thiazole-4-carboxylic acid isopropylamide], at most 1000 nM. `COCCOCC(=O)N1CCC(c2[nH]nc(-c3ccc(F)cc3)c2-c2nc(C(=O)NC(C)C)cs2)CC1` [Example 2168, 2-(3-(4-Fluoro-phenyl)-5-{1-|2-(2-methoxy-ethoxy)-acetyl|-piperidin-4-yl}-1H-pyrazol-4-yl)-thiazole-4-carboxylic acid isopropylamide] displayed an IC50 of at most 1000 nM. Then `CC(C)NC(=O)c1csc(-c2c(-c3ccc(F)cc3)n[nH]c2C2CCN(C(=O)c3ccccn3)CC2)n1` [Example 2169, 2-{3-(4-Fluoro-phenyl)-5-|1-(pyridine-2-carbonyl)-piperidin-4-yl|-1H-pyrazol-4-yl}-thiazole-4-carboxylic acid isopropylamide], with at most 1000 nM; and `CC(C)NC(=O)c1csc(-c2c(-c3ccc(F)cc3)n[nH]c2C2CCN(C(=O)c3ccccc3)CC2)n1` [Example 2170, 2-|5-(1-Benzoyl-piperidin-4-yl)-3-(4-fluoro-phenyl)-1H-pyrazol-4-yl|-thiazole-4-carboxylic acid isopropylamide], with over 1000 nM; and `CC(C)NC(=O)c1csc(-c2c(-c3ccc(F)cc3)n[nH]c2C2CCN(C(=O)c3ccc(C#N)cc3)CC2)n1` [Example 2171, 2-|5-|1-(4-Cyano-benzoyl)-piperidin-4-yl|-3-(4-fluoro-phenyl)-1H-pyrazol-4-yl|-thiazole-4-carboxylic acid isopropylamide], with over 1000 nM. For `COC(=O)N1CCC(c2[nH]nc(-c3ccc(F)cc3)c2-c2nc(C(=O)NC(C)C)cs2)CC1` [Example 2172, 4-|5-(4-Fluoro-phenyl)-4-(4-isopropyl-carbamoyl-thiazol-2-yl)-2H-pyrazol-3-yl|-piperidine-1-carboxylic acid methyl ester] the value was at most 1000 nM; for `COCC(=O)N1CCC(c2[nH]nc(-c3ccc(F)cc3)c2-c2nc(C(=O)NC(C)C)cs2)CC1` [Example 2173, 2-{3-(4-Fluoro-phenyl)-5-|1-(2-methoxy-acetyl)-piperidin-4-yl|-1H-pyrazol-4-yl}-thiazole-4-carboxylic acid isopropylamide], at most 1000 nM; for `CC(C)NC(=O)c1csc(-c2c(-c3ccc(F)cc3)n[nH]c2C2CCN(C(=O)C(F)(F)F)CC2)n1` [Example 2174, 2-{3-(4-Fluoro-phenyl)-5-|1-(2,2,2-trifluoro-acetyl)-piperidin-4-yl|-1H-pyrazol-4-yl}-thiazole-4-carboxylic acid isopropylamide], at most 1000 nM. Then `CC(C)NC(=O)c1csc(-c2c(-c3ccc(F)cc3)n[nH]c2C2CCN(C(=O)c3ncc[nH]3)CC2)n1` [Example 2175, 2-{3-(4-Fluoro-phenyl)-5-|1-(1H-imidazole-2-carbonyl)-piperidin-4-yl|-1H-pyrazol-4-yl}-thiazole-4-carboxylic acid isopropylamide], with at most 1000 nM. In the case of `CC(=O)C(=O)N1CCC(c2[nH]nc(-c3ccc(F)cc3)c2-c2nc(C(=O)NC(C)C)cs2)CC1` [Example 2176, 2-{3-(4-Fluoro-phenyl)-5-|1-(2-oxo-propionyl)-piperidin-4-yl|-1H-pyrazol-4-yl}-thiazole-4-carboxylic acid isopropylamide], the IC50 was at most 1000 nM.

In turn, `CC(=O)NCC(=O)N1CCC(c2[nH]nc(-c3ccc(F)cc3)c2-c2nc(C(=O)NC(C)C)cs2)CC1` [Example 2177, 2-|5-|1-(2-Acetylamino-acetyl)-piperidin-4-yl|-3-(4-fluoro-phenyl)-1H-pyrazol-4-yl|-thiazole-4-carboxylic acid isopropylamide] showed an IC50 of at most 1000 nM.

As for `CC(C)NC(=O)c1csc(-c2c(-c3ccc(F)cc3)n[nH]c2C2CCN(C(=O)c3ccncc3)CC2)n1` [Example 2178, 2-{3-(4-Fluoro-phenyl)-5-|1-(pyridine-4-carbonyl)-piperidin-4-yl|-1H-pyrazol-4-yl}-thiazole-4-carboxylic acid isopropylamide], the IC50 is at most 1000 nM. In the case of `CC(C)NC(=O)c1csc(-c2c(-c3ccc(F)cc3)n[nH]c2C2CCN(C(=O)c3cccnc3)CC2)n1` [Example 2179, 2-{3-(4-Fluoro-phenyl)-5-|1-(pyridine-3-carbonyl)-piperidin-4-yl|-1H-pyrazol-4-yl}-thiazole-4-carboxylic acid isopropylamide], the IC50 is at most 1000 nM. Then `CC(C)NC(=O)c1csc(-c2[nH][nH]c(=O)c2-c2ccc(F)cc2)n1` [Example 2180, 2-|4-(4-Fluoro-phenyl)-5-oxo-2,5-dihydro-1H-pyrazol-3-yl|-thiazole-4-carboxylic acid isopropylamide], with at most 1000 nM; and `CC(C)NC(=O)c1csc(-c2c(-c3ccc(F)cc3)c(=O)[nH]n2C)n1` [Example 2182, 2-|4-(4-Fluoro-phenyl)-2-methyl-5-oxo-2,5-dihydro-1H-pyrazol-3-yl|-thiazole-4-carboxylic acid isopropyl amide], with over 1000 nM; and `CC(C)NC(=O)c1csc(-c2c(-c3ccc(F)cc3)c(=O)[nH]n2C2CCN(C(=O)OCc3ccccc3)CC2)n1` [Example 2183, 4-|4-(4-Fluoro-phenyl)-5-(4-isopropylcarbamoyl-thiazol-2-yl)-3-oxo-2,3-dihydro-pyrazol-1-yl|-piperidine-1-carboxylic acid benzyl ester], with over 1000 nM. For `CC(=O)N1CCC(c2onc(-c3ccc(F)cc3)c2-c2nc(C(=O)NC(C)C)cs2)CC1` [Example 2184, 2-|5-(1-Acetyl-piperidin-4-yl)-3-(4-fluoro-phenyl)-isoxazol-4-yl|-thiazole-4-carboxylic acid isopropylamide] the value was at most 1000 nM.
